What was measured:
Assay in all cases: KINOMEscan kinase profiling
Format in all cases: binding
[1] = molecular target: T1, CHEK1 (Homo sapiens, UniProt O14757)
T1 construct: purchased DiscoverX (Ambit Biosciences) KINOMEscan
Description: (§1) Kinase inhibition profiling assays. The kinase inhibition profiling assay (KINOMEscan) was performed by Ambit Biosciences, now part of DiscoveryX (Fremont, CA) in accordance with the […]
(§2) published protocol20, 21. […] If the inhibition of a kinase was greater […]
(§3) dilutions) starting from 30 µM.

[2] = molecular target: T2, LCK (Homo sapiens, UniProt P06239); details: read-out: %Inhibition by 10 μM SPA70
T2 construct: purchased DiscoverX (Ambit Biosciences) KINOMEscan
Description: as §1, §2, §3

[3] = molecular target: T3, MET (Homo sapiens, UniProt P08581)
T3 construct: purchased DiscoverX (Ambit Biosciences) KINOMEscan
Description: as §1, §2, §3

[4] = molecular target: T4, HIPK2 (Homo sapiens, UniProt Q9H2X6); details: read-out: %Inhibition by 10 μM SPA70
T4 construct: purchased DiscoverX (Ambit Biosciences) KINOMEscan
Description: as §1, §2, §3

[5] = molecular target: T5, PRKD2 (Homo sapiens, UniProt Q9BZL6); details: read-out: %Inhibition by 10 μM SPA70
T5 construct: purchased DiscoverX (Ambit Biosciences) KINOMEscan
Description: as §1, §2, §3

[6] = molecular target: T6, MST1R (Homo sapiens, UniProt Q04912); details: read-out: %Inhibition by 10 μM SPA70
T6 construct: purchased DiscoverX (Ambit Biosciences) KINOMEscan
Description: as §1, §2, §3

[7] = molecular target: T7, CDKL2 (Homo sapiens, UniProt Q92772); details: read-out: %Inhibition by 10 μM SPA70
T7 construct: purchased DiscoverX (Ambit Biosciences) KINOMEscan
Description: as §1, §2, §3

[8] = molecular target: T8, DCAMKL3 (Homo sapiens, UniProt Q9C098); details: read-out: %Inhibition by 10 μM SPA70
T8 construct: purchased DiscoverX (Ambit Biosciences) KINOMEscan
Description: as §1, §2, §3

[9] = molecular target: T9, MAP4K4 (Homo sapiens, UniProt O95819); details: read-out: %Inhibition by 10 μM SPA70
T9 construct: purchased DiscoverX (Ambit Biosciences) KINOMEscan
Description: as §1, §2, §3

[10] = molecular target: T10, DAPK2 (Homo sapiens, UniProt Q9UIK4); details: read-out: %Inhibition by 10 μM SPA70
T10 construct: purchased DiscoverX (Ambit Biosciences) KINOMEscan
Description: as §1, §2, §3

[11] = molecular target: T11, CAMKK1 (Homo sapiens, UniProt Q8N5S9); details: read-out: %Inhibition by 10 μM SPA70
T11 construct: purchased DiscoverX (Ambit Biosciences) KINOMEscan
Description: as §1, §2, §3

[12] = molecular target: T12, HIPK3 (Homo sapiens, UniProt Q9H422); details: read-out: %Inhibition by 10 μM SPA70
T12 construct: purchased DiscoverX (Ambit Biosciences) KINOMEscan
Description: as §1, §2, §3

[13] = molecular target: T13, EPHA7 (Homo sapiens, UniProt Q15375); details: read-out: %Inhibition by 10 μM SPA70
T13 construct: purchased DiscoverX (Ambit Biosciences) KINOMEscan
Description: as §1, §2, §3

[14] = molecular target: T14, PKAC-beta (Homo sapiens, UniProt P22694)
T14 construct: purchased DiscoverX (Ambit Biosciences) KINOMEscan
Description: as §1, §2, §3

[15] = molecular target: T15, FES (Homo sapiens, UniProt P07332); details: read-out: %Inhibition by 10 μM SPA70
T15 construct: purchased DiscoverX (Ambit Biosciences) KINOMEscan
Description: as §1, §2, §3

[16] = molecular target: T16, SYK (Homo sapiens, UniProt P43405)
T16 construct: purchased DiscoverX (Ambit Biosciences) KINOMEscan
Description: as §1, §2, §3

[17] = molecular target: T17, CSNK2A1 (Homo sapiens, UniProt P68400); details: read-out: %Inhibition by 10 μM SPA70
T17 construct: purchased DiscoverX (Ambit Biosciences) KINOMEscan
Description: as §1, §2, §3

[18] = molecular target: T18, HIPK4 (Homo sapiens, UniProt Q8NE63); details: read-out: %Inhibition by 10 μM SPA70
T18 construct: purchased DiscoverX (Ambit Biosciences) KINOMEscan
Description: as §1, §2, §3

[19] = molecular target: T19, FGFR4 (Homo sapiens, UniProt P22455); details: read-out: %Inhibition by 10 μM SPA70
T19 construct: purchased DiscoverX (Ambit Biosciences) KINOMEscan
Description: as §1, §2, §3

[20] = molecular target: T20, DMPK2 (Homo sapiens, UniProt Q6DT37); details: read-out: %Inhibition by 10 μM SPA70
T20 construct: purchased DiscoverX (Ambit Biosciences) KINOMEscan
Description: as §1, §2, §3

[21] = molecular target: T21, FGFR1 (Homo sapiens, UniProt P11362); details: read-out: %Inhibition by 10 μM SPA70
T21 construct: purchased DiscoverX (Ambit Biosciences) KINOMEscan
Description: as §1, §2, §3

[22] = molecular target: T22, PLK4 (Homo sapiens, UniProt O00444); details: read-out: %Inhibition by 10 μM SPA70
T22 construct: purchased DiscoverX (Ambit Biosciences) KINOMEscan
Description: as §1, §2, §3

[23] = molecular target: T23, AAK1 (Homo sapiens, UniProt Q2M2I8); details: read-out: %Inhibition by 10 μM SPA70
T23 construct: purchased DiscoverX (Ambit Biosciences) KINOMEscan
Description: as §1, §2, §3

[24] = molecular target: T24, CDK5 (Homo sapiens, UniProt Q00535)
T24 construct: purchased DiscoverX (Ambit Biosciences) KINOMEscan
Description: as §1, §2, §3

[25] = molecular target: T25, JNK2 (Homo sapiens, UniProt P45984)
T25 construct: purchased DiscoverX (Ambit Biosciences) KINOMEscan
Description: as §1, §2, §3

[26] = molecular target: T26, ASK2 (Homo sapiens, UniProt O95382); details: read-out: %Inhibition by 10 μM SPA70
T26 construct: purchased DiscoverX (Ambit Biosciences) KINOMEscan
Description: as §1, §2, §3

[27] = molecular target: T27, MAP3K3 (Homo sapiens, UniProt Q99759); details: read-out: %Inhibition by 10 μM SPA70
T27 construct: purchased DiscoverX (Ambit Biosciences) KINOMEscan
Description: as §1, §2, §3

[28] = molecular target: T28, PFTK1 (Homo sapiens, UniProt O94921)
T28 construct: purchased DiscoverX (Ambit Biosciences) KINOMEscan
Description: as §1, §2, §3

[29] = molecular target: T29, EIF2AK1 (Homo sapiens, UniProt Q9BQI3); details: read-out: %Inhibition by 10 μM SPA70
T29 construct: purchased DiscoverX (Ambit Biosciences) KINOMEscan
Description: as §1, §2, §3

[30] = molecular target: T30, PHKG1 (Homo sapiens, UniProt Q16816); details: read-out: %Inhibition by 10 μM SPA70
T30 construct: purchased DiscoverX (Ambit Biosciences) KINOMEscan
Description: as §1, §2, §3

[31] = molecular target: T31, EPHA5 (Homo sapiens, UniProt P54756)
T31 construct: purchased DiscoverX (Ambit Biosciences) KINOMEscan
Description: as §1, §2, §3

[32] = molecular target: T32, RSK2(Kin.Dom.1-N-terminal) (Homo sapiens, UniProt P51812); details: read-out: %Inhibition by 10 μM SPA70
T32 construct: RSK2(Kin.Dom.1-N-terminal); purchased DiscoverX (Ambit Biosciences) KINOMEscan
Description: as §1, §2, §3

[33] = molecular target: T33, LKB1 (Homo sapiens, UniProt Q15831); details: read-out: %Inhibition by 10 μM SPA70
T33 construct: purchased DiscoverX (Ambit Biosciences) KINOMEscan
Description: as §1, §2, §3

[34] = molecular target: T34, MYLK2 (Homo sapiens, UniProt Q9H1R3); details: read-out: %Inhibition by 10 μM SPA70
T34 construct: purchased DiscoverX (Ambit Biosciences) KINOMEscan
Description: as §1, §2, §3

[35] = molecular target: T35, RIOK3 (Homo sapiens, UniProt O14730); details: read-out: %Inhibition by 10 μM SPA70
T35 construct: purchased DiscoverX (Ambit Biosciences) KINOMEscan
Description: as §1, §2, §3

[36] = molecular target: T36, VRK2 (Homo sapiens, UniProt Q86Y07); details: read-out: %Inhibition by 10 μM SPA70
T36 construct: purchased DiscoverX (Ambit Biosciences) KINOMEscan
Description: as §1, §2, §3

[37] = molecular target: T37, RSK3(Kin.Dom.2-C-terminal) (Homo sapiens, UniProt Q15349); details: read-out: %Inhibition by 10 μM SPA70
T37 construct: RSK3(Kin.Dom.2-C-terminal); purchased DiscoverX (Ambit Biosciences) KINOMEscan
Description: as §1, §2, §3

[38] = molecular target: T38, ADCK4 (Homo sapiens, UniProt Q96D53); details: read-out: %Inhibition by 10 μM SPA70
T38 construct: purchased DiscoverX (Ambit Biosciences) KINOMEscan
Description: as §1, §2, §3

[39] = molecular target: T39, PRKCE (Homo sapiens, UniProt Q02156); details: read-out: %Inhibition by 10 μM SPA70
T39 construct: purchased DiscoverX (Ambit Biosciences) KINOMEscan
Description: as §1, §2, §3

[40] = molecular target: T40, ERK8 (Homo sapiens, UniProt Q8TD08); details: read-out: %Inhibition by 10 μM SPA70
T40 construct: purchased DiscoverX (Ambit Biosciences) KINOMEscan
Description: as §1, §2, §3

[41] = read-out: %Inhibition by 10 μM SPA70

T24 sequence (Q00535 whole entry): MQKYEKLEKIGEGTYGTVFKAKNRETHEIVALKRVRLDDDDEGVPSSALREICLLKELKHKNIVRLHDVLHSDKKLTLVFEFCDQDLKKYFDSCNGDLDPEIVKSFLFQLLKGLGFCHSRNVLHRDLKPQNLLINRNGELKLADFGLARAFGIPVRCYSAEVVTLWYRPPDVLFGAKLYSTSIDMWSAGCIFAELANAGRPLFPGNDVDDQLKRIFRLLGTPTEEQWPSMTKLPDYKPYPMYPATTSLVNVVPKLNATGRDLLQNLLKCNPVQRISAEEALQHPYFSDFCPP
T32 sequence (P51812 1-397 limits assumed): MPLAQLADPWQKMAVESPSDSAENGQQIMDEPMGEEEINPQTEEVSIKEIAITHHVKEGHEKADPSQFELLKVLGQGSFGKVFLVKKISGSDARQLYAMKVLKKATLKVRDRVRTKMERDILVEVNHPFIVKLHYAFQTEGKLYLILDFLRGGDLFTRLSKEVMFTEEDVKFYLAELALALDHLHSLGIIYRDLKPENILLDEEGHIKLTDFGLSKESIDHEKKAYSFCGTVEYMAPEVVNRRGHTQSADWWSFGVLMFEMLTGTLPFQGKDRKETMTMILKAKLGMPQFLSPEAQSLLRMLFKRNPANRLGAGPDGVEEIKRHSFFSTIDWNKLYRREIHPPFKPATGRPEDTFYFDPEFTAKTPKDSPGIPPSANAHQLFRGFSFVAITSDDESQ
T2 sequence (P06239 whole entry): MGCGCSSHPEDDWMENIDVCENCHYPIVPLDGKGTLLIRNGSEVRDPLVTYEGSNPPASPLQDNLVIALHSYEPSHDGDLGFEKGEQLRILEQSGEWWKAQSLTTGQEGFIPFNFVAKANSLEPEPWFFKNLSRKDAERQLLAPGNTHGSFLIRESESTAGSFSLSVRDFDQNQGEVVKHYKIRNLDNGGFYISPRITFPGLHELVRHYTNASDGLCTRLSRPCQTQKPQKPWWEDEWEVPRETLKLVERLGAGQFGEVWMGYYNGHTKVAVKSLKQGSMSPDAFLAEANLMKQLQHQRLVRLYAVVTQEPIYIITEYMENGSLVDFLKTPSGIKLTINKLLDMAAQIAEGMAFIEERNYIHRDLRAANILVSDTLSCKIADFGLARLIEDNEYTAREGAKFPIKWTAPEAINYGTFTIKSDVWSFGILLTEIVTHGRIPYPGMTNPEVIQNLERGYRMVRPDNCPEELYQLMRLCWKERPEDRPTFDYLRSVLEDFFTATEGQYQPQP
T31 sequence (P54756 25-1037): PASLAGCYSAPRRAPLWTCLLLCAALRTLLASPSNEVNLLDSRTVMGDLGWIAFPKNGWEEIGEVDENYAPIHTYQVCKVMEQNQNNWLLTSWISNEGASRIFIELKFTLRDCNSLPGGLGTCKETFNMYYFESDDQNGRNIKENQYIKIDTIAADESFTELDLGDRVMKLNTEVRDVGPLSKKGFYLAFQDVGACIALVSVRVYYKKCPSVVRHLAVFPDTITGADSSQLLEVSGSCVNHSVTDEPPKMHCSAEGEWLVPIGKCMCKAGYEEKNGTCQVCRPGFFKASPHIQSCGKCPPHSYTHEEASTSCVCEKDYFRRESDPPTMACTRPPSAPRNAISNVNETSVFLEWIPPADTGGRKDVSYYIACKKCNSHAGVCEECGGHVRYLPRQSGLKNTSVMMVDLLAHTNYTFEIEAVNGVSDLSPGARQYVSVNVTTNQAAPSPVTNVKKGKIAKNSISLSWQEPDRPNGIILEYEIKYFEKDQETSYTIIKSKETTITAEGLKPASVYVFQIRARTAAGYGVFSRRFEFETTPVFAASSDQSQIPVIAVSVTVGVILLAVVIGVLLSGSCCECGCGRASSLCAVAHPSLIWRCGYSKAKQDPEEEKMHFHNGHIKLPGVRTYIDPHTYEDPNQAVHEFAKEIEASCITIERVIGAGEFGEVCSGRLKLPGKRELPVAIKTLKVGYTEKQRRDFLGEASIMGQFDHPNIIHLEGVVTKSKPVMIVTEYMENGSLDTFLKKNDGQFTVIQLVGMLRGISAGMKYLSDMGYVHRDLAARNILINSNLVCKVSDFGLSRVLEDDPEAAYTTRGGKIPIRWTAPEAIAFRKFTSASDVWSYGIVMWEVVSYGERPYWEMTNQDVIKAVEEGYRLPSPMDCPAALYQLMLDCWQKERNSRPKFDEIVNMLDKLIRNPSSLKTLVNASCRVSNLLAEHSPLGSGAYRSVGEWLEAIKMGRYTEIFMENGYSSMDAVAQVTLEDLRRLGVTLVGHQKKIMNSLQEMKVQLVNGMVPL
T23 sequence (Q2M2I8 whole entry): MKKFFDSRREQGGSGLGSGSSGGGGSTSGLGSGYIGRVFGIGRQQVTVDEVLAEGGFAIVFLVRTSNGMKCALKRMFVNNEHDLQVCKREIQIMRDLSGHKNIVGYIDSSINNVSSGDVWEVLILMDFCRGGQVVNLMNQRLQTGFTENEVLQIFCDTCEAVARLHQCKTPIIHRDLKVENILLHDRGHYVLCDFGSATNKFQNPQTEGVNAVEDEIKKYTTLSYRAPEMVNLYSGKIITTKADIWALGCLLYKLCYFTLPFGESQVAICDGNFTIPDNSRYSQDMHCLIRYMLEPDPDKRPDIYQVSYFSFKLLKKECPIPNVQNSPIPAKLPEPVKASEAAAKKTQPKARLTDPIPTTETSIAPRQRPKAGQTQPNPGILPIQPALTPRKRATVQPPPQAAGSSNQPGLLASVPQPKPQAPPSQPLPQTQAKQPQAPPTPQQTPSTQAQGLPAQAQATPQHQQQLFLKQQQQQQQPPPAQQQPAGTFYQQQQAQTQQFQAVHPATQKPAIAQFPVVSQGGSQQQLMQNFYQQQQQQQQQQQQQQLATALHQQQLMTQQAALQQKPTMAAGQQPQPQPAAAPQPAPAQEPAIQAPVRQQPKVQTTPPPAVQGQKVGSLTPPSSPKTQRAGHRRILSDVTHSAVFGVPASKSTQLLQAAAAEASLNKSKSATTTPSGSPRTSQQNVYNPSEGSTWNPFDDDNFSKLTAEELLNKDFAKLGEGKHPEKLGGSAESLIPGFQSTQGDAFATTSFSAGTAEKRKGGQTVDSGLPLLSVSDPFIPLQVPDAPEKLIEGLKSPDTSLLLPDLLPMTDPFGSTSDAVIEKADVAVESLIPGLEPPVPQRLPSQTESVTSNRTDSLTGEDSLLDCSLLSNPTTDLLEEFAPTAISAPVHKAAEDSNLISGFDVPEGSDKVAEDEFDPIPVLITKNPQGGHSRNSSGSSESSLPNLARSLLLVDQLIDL
T6 sequence (Q04912 25-1400): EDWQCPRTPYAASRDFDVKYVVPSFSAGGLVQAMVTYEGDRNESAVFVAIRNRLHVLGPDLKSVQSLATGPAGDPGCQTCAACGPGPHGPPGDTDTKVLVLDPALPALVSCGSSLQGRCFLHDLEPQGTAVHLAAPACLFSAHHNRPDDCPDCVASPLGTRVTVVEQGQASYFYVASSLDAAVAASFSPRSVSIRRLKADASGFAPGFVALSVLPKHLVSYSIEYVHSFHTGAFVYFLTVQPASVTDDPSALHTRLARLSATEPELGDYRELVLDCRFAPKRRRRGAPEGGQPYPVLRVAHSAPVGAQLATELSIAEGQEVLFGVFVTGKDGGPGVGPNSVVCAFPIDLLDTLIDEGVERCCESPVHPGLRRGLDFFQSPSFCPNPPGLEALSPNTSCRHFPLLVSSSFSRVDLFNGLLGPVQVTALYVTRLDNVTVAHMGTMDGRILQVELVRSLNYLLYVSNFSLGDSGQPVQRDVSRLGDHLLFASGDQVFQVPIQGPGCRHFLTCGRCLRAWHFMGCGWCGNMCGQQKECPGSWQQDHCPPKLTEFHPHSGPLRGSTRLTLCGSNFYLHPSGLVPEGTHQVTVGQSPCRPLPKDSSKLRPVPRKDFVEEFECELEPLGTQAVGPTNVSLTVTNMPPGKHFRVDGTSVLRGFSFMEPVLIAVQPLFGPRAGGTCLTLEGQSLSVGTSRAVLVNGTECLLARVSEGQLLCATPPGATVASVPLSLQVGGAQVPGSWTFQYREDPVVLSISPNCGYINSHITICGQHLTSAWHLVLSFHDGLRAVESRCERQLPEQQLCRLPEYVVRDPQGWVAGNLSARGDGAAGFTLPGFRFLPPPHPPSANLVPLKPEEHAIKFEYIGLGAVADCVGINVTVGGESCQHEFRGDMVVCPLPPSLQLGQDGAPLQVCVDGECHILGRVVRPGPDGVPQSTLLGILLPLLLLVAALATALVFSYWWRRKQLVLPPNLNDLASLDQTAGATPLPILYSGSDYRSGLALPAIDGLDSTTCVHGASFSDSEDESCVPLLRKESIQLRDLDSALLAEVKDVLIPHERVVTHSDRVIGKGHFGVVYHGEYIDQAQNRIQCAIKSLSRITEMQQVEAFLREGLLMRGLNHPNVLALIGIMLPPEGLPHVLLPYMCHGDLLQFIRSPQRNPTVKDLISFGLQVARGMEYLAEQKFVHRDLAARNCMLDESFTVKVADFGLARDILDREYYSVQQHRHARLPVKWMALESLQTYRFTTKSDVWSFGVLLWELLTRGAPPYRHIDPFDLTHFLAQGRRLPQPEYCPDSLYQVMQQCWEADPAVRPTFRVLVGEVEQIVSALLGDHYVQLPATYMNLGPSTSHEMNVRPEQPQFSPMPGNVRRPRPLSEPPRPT
T33 sequence (Q15831 whole entry): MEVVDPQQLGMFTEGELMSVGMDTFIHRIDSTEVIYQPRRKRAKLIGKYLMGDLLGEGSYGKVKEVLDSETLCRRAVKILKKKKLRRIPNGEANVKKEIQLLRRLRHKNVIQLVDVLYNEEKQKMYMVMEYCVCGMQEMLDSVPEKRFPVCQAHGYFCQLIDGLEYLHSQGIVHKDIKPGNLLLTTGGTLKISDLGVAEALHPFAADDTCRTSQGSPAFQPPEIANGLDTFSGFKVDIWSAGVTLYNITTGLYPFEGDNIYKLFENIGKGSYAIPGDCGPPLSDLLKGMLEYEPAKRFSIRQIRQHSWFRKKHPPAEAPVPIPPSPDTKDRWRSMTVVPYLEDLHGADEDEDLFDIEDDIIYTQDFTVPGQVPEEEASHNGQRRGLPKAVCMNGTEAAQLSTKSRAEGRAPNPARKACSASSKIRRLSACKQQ

COc1ccc(OC)c(-n2nnc(S(=O)(=O)c3ccc(C(C)(C)C)cc3)c2C)c1 [SPA70]
%Inhibition by 10 μM SPA70 [1]: 8%
inhibition at 10 µM [2]: 2%
%Inhibition by 10 μM SPA70 [3]: 0%
inhibition at 10 µM [4]: 36%
inhibition at 10 µM [5]: 9%
inhibition at 10 µM [6]: 3%
inhibition at 10 µM [7]: 22%
inhibition at 10 µM [8]: 0%
inhibition at 10 µM [9]: 0%
inhibition at 10 µM [10]: 0%
inhibition at 10 µM [11]: 1%
inhibition at 10 µM [12]: 10%
inhibition at 10 µM [13]: 0%
%Inhibition by 10 μM SPA70 [14]: not inhibited
inhibition at 10 µM [14, 41]: 0%
inhibition at 10 µM [15]: 40%
%Inhibition by 10 μM SPA70 [16]: 0%
inhibition at 10 µM [17]: 15%
inhibition at 10 µM [18]: 0%
inhibition at 10 µM [19]: 5%
inhibition at 10 µM [20]: 3%
inhibition at 10 µM [21]: 0%
inhibition at 10 µM [22]: 9%
inhibition at 10 µM [23]: 11%
%Inhibition by 10 μM SPA70 [24]: not inhibited
inhibition at 10 µM [24, 41]: 0%
%Inhibition by 10 μM SPA70 [25]: 0%
inhibition at 10 µM [26]: 0%
inhibition at 10 µM [27]: 16%
%Inhibition by 10 μM SPA70 [28]: 0%
inhibition at 10 µM [29]: 0%
inhibition at 10 µM [30]: 0%
%Inhibition by 10 μM SPA70 [31]: 0%
inhibition at 10 µM [32]: 11%
inhibition at 10 µM [33]: 0%
inhibition at 10 µM [34]: 0%
inhibition at 10 µM [35]: 24%
inhibition at 10 µM [36]: 0%
inhibition at 10 µM [37]: 19%
inhibition at 10 µM [38]: 16%
inhibition at 10 µM [39]: 0%
inhibition at 10 µM [40]: 0%

From publication PMC5622171 (Nature Communications, 2017)
